This is an account of results in patent US20260138978A1, “POSITIVE ALLOSTERIC MODULATORS OF THE MUSCARINIC ACETYLCHOLINE RECEPTOR M1” (Vanderbilt University, priority 2022, published 2026).

Structures are written as SMILES.

Usually Emax stands for the greatest response seen or fitted, relative to the assay's reference. For orientation: EC50 means the concentration needed to bring the measured effect to its halfway point.

The target of experiment [1] is T1, human mAChRM1 (Homo sapiens, UniProt P11229).
T1 construct: host or cells: CHO-K1
T1 sequence (P11229 1-460): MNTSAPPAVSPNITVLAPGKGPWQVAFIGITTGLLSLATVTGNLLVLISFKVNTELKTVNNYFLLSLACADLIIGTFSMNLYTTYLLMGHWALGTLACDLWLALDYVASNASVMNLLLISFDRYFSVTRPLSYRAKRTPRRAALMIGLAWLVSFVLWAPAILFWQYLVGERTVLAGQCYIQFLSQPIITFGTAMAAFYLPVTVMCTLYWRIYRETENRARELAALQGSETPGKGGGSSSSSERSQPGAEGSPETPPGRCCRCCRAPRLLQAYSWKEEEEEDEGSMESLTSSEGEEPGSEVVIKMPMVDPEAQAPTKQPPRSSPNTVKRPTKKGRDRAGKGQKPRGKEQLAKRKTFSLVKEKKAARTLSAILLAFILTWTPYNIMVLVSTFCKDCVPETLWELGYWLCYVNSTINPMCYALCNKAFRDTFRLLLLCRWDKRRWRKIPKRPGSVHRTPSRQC
In words: mAChR M1 cell-based functional assay (calcium mobilization), agonist activity upon compound addition, Emax relative to acetylcholine maximum. The note with it: for Agonist Activity Human M1 EC50 / EC50: calcium mobilization upon compound addition; for Emax: relative to the maximum for acetylcholine. In a few lines: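 Emax is given as a percentage of the maximal acetylcholine response, from four-parameter curves of compound-evoked calcium mobilization. Human M1-transfected CHO-K1 cells carried Fluo-4 dye, and compound (11 concentrations, 1:3 steps) was applied at 4 s of a 300 s kinetic fluorescence recording.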
Background: Calcium assays in cells follow changes in intracellular calcium, usually with a dye or a luminescent sensor.

Experiment [2] has as its target T1, human mAChRM1. The experiment in a line: mAChR M1 cell-based functional assay (calcium mobilization), positive allosteric modulator activity: increase in the EC20 acetylcholine response. The conditions noted are these: for Emax: PAM mode; for EC50: increase in the EC20 acetylcholine response, read-out: PAM Activity Human M1 EC50. In a few lines: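 Potentiation is scored as the rise in an EC20 acetylcholine-evoked calcium signal across 11-point (1:3) compound series, fitted with a four-parameter logistic equation to give EC50 and Emax. Read-out is Fluo-4 fluorescence ratio in hM1-transfected CHO-K1 cells, measured kinetically on FDSS.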

Consider `COc1cc(-c2ccc(C(C)(C)O)c3nn(C)cc23)cc(F)c1CN1Cc2ncccc2C1=O` [Compound 60, 6-(2-fluoro-4-(7-(2-hydroxypropan-2-yl)-2-methyl-2H-indazol-4-yl)-6-methoxybenzyl)-6,7-dihydro-5H-pyrrolo[3,4-b]pyridin-5-one], for which the “Agonist Activity Human M1 EC50” value at human mAChRM1 [1] was “inactive”. Besides, on human mAChRM1 [2], the Emax came out at 68% and the EC50 was found to be 163 nM.
Consider `Cc1cnc2c(c1)C(=O)N(Cc1c(F)cc(-c3ccc(C(C)(C)O)c4nn(C)cc34)cc1F)C2` [Compound 174, 6-(2,6-difluoro-4-(7-(2-hydroxypropan-2-yl)-2-methyl-2H-indazol-4-yl)benzyl)-3-methyl-6,7-dihydro-5H-pyrrolo[3,4-b]pyridin-5-one], for which, at human mAChRM1 [1], the EC50 is not below 10 µM and the Emax is 17%. Moreover, on human mAChRM1 [2], the Emax was found to be 80% and the concentration giving a half-maximal response (EC50) stood at 531 nM.
With `CC(C)c1cnc2c(c1)C(=O)N(Cc1c(F)cc(-c3ccc(C(C)(C)O)c4nn(C)cc34)cc1F)C2` [Compound 177, 6-(2,6-difluoro-4-(7-(2-hydroxypropan-2-yl)-2-methyl-2H-indazol-4-yl)benzyl)-3-isopropyl-6,7-dihydro-5H-pyrrolo[3,4-b]pyridin-5-one], at human mAChRM1 [1], the “Agonist Activity Human M1 EC50” value was “inactive”. For the same compound, at human mAChRM1 [2], the Emax turned out to be 75% and the EC50 stood at 5100 nM.
Take `CC(C)(O)c1cc2cc(-c3cc(F)c(CN4Cc5ncccc5C4=O)c(F)c3)ccn2n1` [Compound 108, 6-(2,6-difluoro-4-(2-(2-hydroxypropan-2-yl)pyrazolo[1,5-a]pyridin-5-yl)benzyl)-6,7-dihydro-5H-pyrrolo[3,4-b]pyridin-5-one]: on human mAChRM1 [1], the “Agonist Activity Human M1 EC50” value was “inactive”. Further, at human mAChRM1 [2], the Emax came out at 70% and the EC50 came out at 1800 nM.
Taken in the same sequence, the figures for `Cc1cc(-c2cc(C(C)(C)O)c3nn(C)cc3c2)cc(F)c1CN1Cc2cccc(F)c2C1=O` [Compound 168, 7-fluoro-2-(2-fluoro-4-(7-(2-hydroxypropan-2-yl)-2-methyl-2H-indazol-5-yl)-6-methylbenzyl)isoindolin-1-one] were “inactive”, 79% and 998 nM.
Turning to `Cn1nc2cc(C(C)(C)O)ccc2c1-c1cc(F)c(CN2Cc3ncccc3C2=O)c(F)c1` [Compound 51], the “Agonist Activity Human M1 EC50” value at human mAChRM1 [1] is “inactive”. In addition, at human mAChRM1 [2], the Emax stood at 30% and the EC50 was not below 10000 nM.
As for `CC(C)(O)c1c(F)cc(-c2cc(F)c(CN3Cc4ncccc4C3=O)c(F)c2)cc1F` [Compound 47, 6-((3,3′,5,5′-tetrafluoro-4′-(2-hydroxypropan-2-yl)-[1,1′-biphenyl]-4-yl)methyl)-6,7-dihydro-5H-pyrrolo[3,4-b]pyridin-5-one], the “Agonist Activity Human M1 EC50” value at human mAChRM1 [1] is “inactive”. Moreover, at human mAChRM1 [2], the Emax worked out at 34% and the EC50 was found to be 1830 nM.
For the compound `Cc1cc(-c2ccc(C(C)(C)O)c3nn(C)cc23)cc(F)c1CN1Cc2ncccc2C1=O` [Compound 2, 6-(2-Fluoro-4-(7-(2-hydroxypropan-2-yl)-2-methyl-2H-indazol-4-yl)-6-methylbenzyl)-6,7-dihydro-5H-pyrrolo[3,4-b]pyridin-5-one], on human mAChRM1 [1], the EC50 amounted to 8.35 µM and the Emax is 33%. In addition, on human mAChRM1 [2], the Emax is 87% and the EC50 was 65 nM.
Consider `CC(C)(O)c1ccc(-c2cc(F)c(CN3Cc4ncccc4C3=O)c(F)c2)cn1` [Compound 6, 6-(2,6-difluoro-4-(6-(2-hydroxypropan-2-yl)pyridin-3-yl)benzyl)-6,7-dihydro-5H-pyrrolo[3,4-b]pyridin-5-one], for which the “Agonist Activity Human M1 EC50” value at human mAChRM1 [1] was “inactive”. For the same compound, at human mAChRM1 [2], the Emax was 80% and the EC50 was not below 10000 nM.
As to `CCn1cc2c(-c3cc(F)c(CN4Cc5ncccc5C4=O)c(F)c3)ccc(C(C)(C)O)c2n1` [Compound 99, 6-(4-(2-ethyl-7-(2-hydroxypropan-2-yl)-2H-indazol-4-yl)-2,6-difluorobenzyl)-6,7-dihydro-5H-pyrrolo[3,4-b]pyridin-5-one], at human mAChRM1 [1], the concentration giving a half-maximal response (EC50) was 4.11 µM and the Emax is 13%. Also, at human mAChRM1 [2], the Emax stood at 85% and the EC50 worked out at 176 nM.
As for `CC(C)(O)c1cncc(-c2cc(F)c(CN3Cc4ncccc4C3=O)c(F)c2)c1` [Compound 42, 6-(2,6-difluoro-4-(5-(2-hydroxypropan-2-yl)pyridin-3-yl)benzyl)-6,7-dihydro-5H-pyrrolo[3,4-b]pyridin-5-one], the “Agonist Activity Human M1 EC50” value at human mAChRM1 [1] is “inactive”. Also, at human mAChRM1 [2], the Emax was 48% and the EC50 is not below 10000 nM.
With `[2H]C([2H])([2H])n1cc2c(-c3cc(C)c(CN4Cc5ncccc5C4=O)c(F)c3)ccc(C(C)(C)O)c2n1` (single isomer, unassigned) [Compound 15, 6-(2-fluoro-4-(7-(2-hydroxypropan-2-yl)-2-(methyl-d3)-2H-indazol-4-yl)-6-methylbenzyl)-6,7-dihydro-5H-pyrrolo[3,4-b]pyridin-5-one], on human mAChRM1 [1], the EC50 came to 2.99 µM and the Emax came out at 41%. For the same compound, at human mAChRM1 [2], the Emax was 77% and the EC50 came out at 81 nM.
In the case of `Cn1cc2c(-c3cc(F)c(CN4Cc5ccccc5C4=O)c(F)c3)ccc(C(C)(C)O)c2n1` [Compound 172, 2-(2,6-difluoro-4-(7-(2-hydroxypropan-2-yl)-2-methyl-2H-indazol-4-yl)benzyl)isoindolin-1-one], the “Agonist Activity Human M1 EC50” value at human mAChRM1 [1] is “inactive”. Also, at human mAChRM1 [2], the Emax is 85% and the concentration for a half-maximal effect (EC50) amounted to 155 nM.
In the case of `CCC(O)(c1ccc(-c2cc(F)c(CN3Cc4ncccc4C3=O)c(F)c2)c2cn(C)nc12)C(F)(F)F` (centres unmarked) [Compound 81, 6-(2,6-difluoro-4-(2-methyl-7-(1,1,1-trifluoro-2-hydroxybutan-2-yl)-2H-indazol-4-yl)benzyl)-6,7-dihydro-5H-pyrrolo[3,4-b]pyridin-5-one], the “Agonist Activity Human M1 EC50” value at human mAChRM1 [1] is “inactive”. Besides, at human mAChRM1 [2], the Emax came out at 71% and the concentration giving a half-maximal response (EC50) came to 4470 nM.
With `Cn1cc2c(-c3ccc(CN4Cc5ncccc5C4=O)cc3)ccc(C(C)(C)O)c2n1` [Compound 59, 6-(4-(7-(2-hydroxypropan-2-yl)-2-methyl-2H-indazol-4-yl)benzyl)-6,7-dihydro-5H-pyrrolo[3,4-b]pyridin-5-one], on human mAChRM1 [1], the EC50 is not below 10 µM and the Emax stood at 16%. On human mAChRM1 [2], the Emax was 67% and the EC50 turned out to be 396 nM.
For `Cn1cc2c(-c3cc(F)c(CN4Cc5ncccc5C4=O)c(C4CC4)c3)ccc(C(C)(C)O)c2n1` [Compound 3, 6-(2-cyclopropyl-6-fluoro-4-(7-(2-hydroxypropan-2-yl)-2-methyl-2H-indazol-4-yl)benzyl)-6,7-dihydro-5H-pyrrolo[3,4-b]pyridin-5-one] the same measures were 5.22 µM, 47%, 86% and 45 nM.
As for `Cn1cc2c(-c3cc(F)c(CN4Cc5ncccc5C4=O)c(F)c3)ccc(C3(O)CC(F)(F)C3)c2n1` [Compound 105, 6-(4-(7-(3,3-difluoro-1-hydroxycyclobutyl)-2-methyl-2H-indazol-4-yl)-2,6-difluorobenzyl)-6,7-dihydro-5H-pyrrolo[3,4-b]pyridin-5-one], the EC50 was more than 10 µM at human mAChRM1 [1] and 780 nM on human mAChRM1 [2]. Besides, the Emax turned out to be 15% at human mAChRM1 [1] and 72% on human mAChRM1 [2].
In the case of `[2H]C([2H])([2H])C(C)(O)c1ccc(-c2cc(F)c(CN3Cc4ncccc4C3=O)c(F)c2)c2cn(C)nc12` (centres unmarked) [Compound 95, 6-(2,6-difluoro-4-(7-(2-hydroxypropan-2-yl-1,1,1-d3)-2-methyl-2H-indazol-4-yl)benzyl)-6,7-dihydro-5H-pyrrolo[3,4-b]pyridin-5-one], on human mAChRM1 [1], the EC50 came to 1.86 µM and the Emax was found to be 27%. Further, on human mAChRM1 [2], the Emax came out at 86% and the EC50 turned out to be 96 nM.
Turning to `Cn1cc2c(-c3cc(F)c(CN4Cc5cccc(F)c5C4=O)c(Cl)c3)ccc(C(C)(C)O)c2n1` [Compound 165, 2-(2-chloro-6-fluoro-4-(7-(2-hydroxypropan-2-yl)-2-methyl-2H-indazol-4-yl)benzyl)-7-fluoroisoindolin-1-one], the “Agonist Activity Human M1 EC50” value on human mAChRM1 [1] is “inactive”. Moreover, at human mAChRM1 [2], the Emax is 80% and the EC50 amounted to 361 nM.
Taken in the same sequence, the figures for `Cn1nc(C(C)(C)O)cc1-c1cc(F)c(CN2Cc3ncccc3C2=O)c(C2CC2)c1` [Compound 68, 6-(2-cyclopropyl-6-fluoro-4-(3-(2-hydroxypropan-2-yl)-1-methyl-1H-pyrazol-5-yl)benzyl)-6,7-dihydro-5H-pyrrolo[3,4-b]pyridin-5-one] were “inactive”, 49% and not below 10000 nM.
